Consider 31 compounds from patent US20150141381A1, “TETRACYCLINE COMPOUNDS HAVING TARGET THERAPEUTIC ACTIVITIES” (Paratek Pharmaceuticals, Inc., priority 2001, published 2015).

The structures appear in SMILES notation. Where two headings read alike, the source gives them in different places.

The test system of one experiment is S. aureus RN450. The experiment can be described thus: In Vitro Anti-Bacterial Activity Assay (MIC), gram positive. It counts as cell-based. Particulars: Staphylococcus aureus, RN450, 18 h.
A further experiment deals with E. coli mL308 225. The experiment can be described thus: In Vitro Anti-Bacterial Activity Assay (MIC), gram negative. It counts as cell-based. Particulars: Escherichia coli, ML308225, 18 h.
Setting [1] is: gram positive bacteria, read-out: Antibiotic Activity Gram + (MIC).
[2] abbreviates: gram negative bacteria, read-out: Antibiotic Activity Gram − (MIC).
Where [3] appears, read: MIC class, Table 3, read-out: Antibiotic Activity Gram +.
The mark [4] stands for this setting: MIC class, Table 3, read-out: Antibiotic Activity Gram −.
The mark [5] stands for this setting: MIC class, Table 3 (Continued), read-out: Gram+ activity.
Setting [6] is: MIC class, Table 3 (Continued), read-out: Gram− activity.
Where [7] appears, read: read-out: Antibiotic Activity Gram − (MIC).

On to `CCCCOc1cccc2c1C(=O)C1=C(O)[C@]3(O)C(=O)C(C(N)=O)=C(O)[C@@H](N(C)C)[C@@H]3C[C@@H]1C2`, for which the MIC in the experiment on S. aureus RN450 (setting [1]) and in the experiment with E. coli mL308 225 (setting [2]) was more than 4 µg/mL in each case.
Take `CC1OC(=O)NC1COC(=O)N(Cc1cc(N(C)C)c2c(c1O)C(=O)C1=C(O)[C@]3(O)C(=O)C(C(N)=O)=C(O)[C@@H](N(C)C)[C@@H]3C[C@@H]1C2)CC(C)(C)C` (some centres unmarked): the MIC in the experiment on S. aureus RN450 (setting [1]) was less than 4 µg/mL; in the experiment on E. coli mL308 225 (setting [2]), more than 4 µg/mL.
For `CC(=O)c1ccc(NC(=O)NCc2cc(N(C)C)c3c(c2O)C(=O)C2=C(O)[C@]4(O)C(=O)C(C(N)=O)=C(O)[C@@H](N(C)C)[C@@H]4C[C@@H]2C3)cc1` [FL], the figures for the MIC in the experiment with S. aureus RN450 (setting [3]) and with E. coli mL308 225 (setting [4]) were less than 4 µg/mL and more than 4 µg/mL, respectively.
On to `C[C@H]1c2cccc(O)c2C(=O)C2=C(O)[C@]3(O)C(=O)C(C(N)=O)=C(O)[C@@H](N(C)C)[C@@H]3[C@@H](OC(=O)C34CC5CC(CC(C5)C3)C4)[C@@H]21` [T], for which the MIC with S. aureus RN450 (setting [3]) was less than 4 µg/mL; in the experiment on E. coli mL308 225 (setting [4]), more than 4 µg/mL.
`COc1ccc(/C=C/c2ccc(O)c3c2C[C@H]2C[C@H]4[C@H](N(C)C)C(O)=C(C(N)=O)C(=O)[C@@]4(O)C(O)=C2C3=O)cc1OC`: the MIC in the experiment on S. aureus RN450 (setting [5]) and in the experiment with E. coli mL308 225 (setting [6]) was less than 4 µg/mL in each case.
Consider `CON(C)CC(=O)Nc1ccc(-c2ccc(O)c3c2C[C@H]2C[C@H]4[C@@H](N(C)C)C(O)=C(C(N)=O)C(=O)[C@@]4(O)C(O)=C2C3=O)cc1` [PN], for which the MIC in the experiment with S. aureus RN450 (setting [3]) was less than 4 µg/mL; with E. coli mL308 225 (setting [4]) it was more than 4 µg/mL.
For `CN(C)c1cc(CN2CCC(C(F)F)CC2)c(O)c2c1C[C@H]1C[C@H]3[C@H](N(C)C)C(O)=C(C(N)=O)C(=O)[C@@]3(O)C(O)=C1C2=O`, the MIC in the experiment on S. aureus RN450 (setting [1]) and with E. coli mL308 225 (setting [2]) was less than 4 µg/mL in each case.
`CN(C)[C@@H]1C(O)=C(C(N)=O)C(=O)[C@@]2(O)C(O)=C3C(=O)c4c(O)c(C(C)(C)C)cc(CNC(=O)c5cccnc5)c4C[C@H]3C[C@@H]12` [CE]: the MIC with S. aureus RN450 (setting [3]) and with E. coli mL308 225 (setting [4]) was more than 4 µg/mL in each case.
`COC(=O)CCc1ccc(O)c2c1C[C@H]1C[C@H]3C(N(C)C)C(O)=C(C(N)=O)C(=O)[C@@]3(O)C(O)=C1C2=O` (some centres unmarked) [FC]: the MIC in the experiment on S. aureus RN450 (setting [3]) was less than 4 µg/mL; with E. coli mL308 225 (setting [4]), more than 4 µg/mL.
As for `COC(=O)c1cc(N)cc(-c2ccc(O)c3c2C[C@H]2C[C@H]4[C@H](N(C)C)C(O)=C(C(N)=O)C(=O)[C@@]4(O)C(O)=C2C3=O)c1` [HE], the figures for the MIC in the experiment with S. aureus RN450 (setting [3]) and in the experiment on E. coli mL308 225 (setting [4]) were less than 4 µg/mL and more than 4 µg/mL, respectively.
On to `CN(C)[C@@H]1C(O)=C(C(N)=O)C(=O)[C@@]2(O)C(O)=C3C(=O)c4c(O)ccc(C5C=CCC5)c4C[C@H]3C[C@@H]12` (some centres unmarked), for which the MIC with S. aureus RN450 (setting [5]) and in the experiment on E. coli mL308 225 (setting [6]) was less than 4 µg/mL throughout.
Regarding `CCCC#Cc1ccc(O)c2c1C[C@H]1C[C@H]3[C@H](N(C)C)C(O)=C(C(N)=O)C(=O)[C@@]3(O)C(O)=C1C2=O` [DK], the MIC in the experiment with S. aureus RN450 (setting [3]) and with E. coli mL308 225 (setting [4]) was more than 4 µg/mL in each case.
Consider `CN(C)[C@@H]1C(O)=C(C(N)=O)C(=O)[C@@]2(O)C(O)=C3C(=O)c4c(ccc(NC(=O)Oc5ccc(F)cc5)c4O)C[C@H]3C[C@@H]12`, for which the MIC in the experiment with S. aureus RN450 (read-out: Gram+ activity) and in the experiment on E. coli mL308 225 (read-out: Gram− activity) was more than 4 µg/mL in each case.
Consider `COc1ccc(-c2cc(CNC(C)CF)c(O)c3c2C[C@H]2C[C@H]4[C@H](N(C)C)C(O)=C(C(N)=O)C(=O)[C@@]4(O)C(O)=C2C3=O)cc1` (some centres unmarked), for which the values for the MIC with S. aureus RN450 (setting [1]) and with E. coli mL308 225 (setting [7]) were less than 4 µg/mL and more than 4 µg/mL, respectively.
Consider `Cc1cc(CNCc2cc(N(C)C)c3c(c2O)C(=O)C2=C(O)[C@]4(O)C(=O)C(C(N)=O)=C(O)[C@@H](N(C)C)[C@@H]4C[C@@H]2C3)c(C(F)(F)F)o1`, for which the MIC with S. aureus RN450 (setting [1]) and with E. coli mL308 225 (setting [2]) was less than 4 µg/mL in each case.
For `COc1ccc(C#Cc2cc(N(C)C)c3c(c2O)C(=O)C2=C(O)[C@]4(O)C(=O)C(C(N)=O)=C(O)[C@@H](N(C)C)[C@@H]4C[C@@H]2C3)cc1`, the MIC in the experiment with S. aureus RN450 (setting [5]) and with E. coli mL308 225 (setting [6]) was less than 4 µg/mL in each case.
In the case of `CN(C)[C@@H]1C(O)=C(C(N)=O)C(=O)[C@@]2(O)C(O)=C3C(=O)c4c(O)ccc(Cl)c4C=C3C[C@@H]12`, the MIC in the experiment on S. aureus RN450 (setting [1]) and with E. coli mL308 225 (setting [2]) was less than 4 µg/mL each time.
Consider `CCOC(=O)NCc1cc(N(C)C)c2c(c1O)C(=O)C1=C(O)[C@]3(O)C(=O)C(C(N)=O)=C(O)[C@H](N(C)C)[C@@H]3C[C@@H]1C2` [ES], for which the MIC is less than 4 µg/mL in the experiment on S. aureus RN450 (setting [3]) and more than 4 µg/mL in the experiment with E. coli mL308 225 (setting [4]).
The like results for `COc1ccc(-c2ccc(O)c3c2C[C@H]2C[C@H]4[C@H](N(C)C)C(O)=C(C(N)=O)C(=O)[C@@]4(O)C(O)=C2C3=O)cc1CN1CCN(C)CC1` [JY] were, in that order, less than 4 µg/mL and more than 4 µg/mL.
As for `CN(C)CCCc1ccc(O)c2c1C[C@H]1C[C@H]3[C@H](N(C)C)C(O)=C(C(N)=O)C(=O)[C@@]3(O)C(O)=C1C2=O` [BQ], the MIC with S. aureus RN450 (setting [3]) was less than 4 µg/mL; in the experiment on E. coli mL308 225 (setting [4]), more than 4 µg/mL.
With `CN1CCN(c2cc(N(C)C)c3c(c2O)C(=O)C2=C(O)[C@]4(O)C(=O)C(C(N)=O)=C(O)[C@@H](N(C)C)[C@@H]4C[C@@H]2C3)CC1`, the MIC in the experiment on S. aureus RN450 (setting [1]) and in the experiment with E. coli mL308 225 (setting [2]) was more than 4 µg/mL throughout.
With `CN(C)c1cc(CNC(=O)OCC(C)(C)C)c(O)c2c1C[C@H]1C[C@H]3[C@H](N(C)C)C(O)=C(C(N)=O)C(=O)[C@@]3(O)C(O)=C1C2=O` [EN], the MIC with S. aureus RN450 (setting [3]) was less than 4 µg/mL; in the experiment on E. coli mL308 225 (setting [4]), more than 4 µg/mL.
As for `CN(C)c1cc(NC(=S)Nc2ccc([N+](=O)[O-])cc2)c(O)c2c1C[C@H]1C[C@H]3[C@H](N(C)C)C(O)=C(C(N)=O)C(=O)[C@@]3(O)C(O)=C1C2=O` [DA], the MIC in the experiment on S. aureus RN450 (setting [3]) is less than 4 µg/mL; in the experiment with E. coli mL308 225 (setting [4]), more than 4 µg/mL.
Take `CCCCCc1ccc(O)c2c1C[C@H]1C[C@H]3C(N(C)C)C(O)=C(C(N)=O)C(=O)[C@@]3(O)C(O)=C1C2=O` (some centres unmarked): the MIC in the experiment with S. aureus RN450 (setting [5]) and in the experiment on E. coli mL308 225 (setting [6]) was less than 4 µg/mL throughout.
Regarding `CN(C)c1ccc(O)c2c1C[C@H]1C[C@H]3CC(O)=C(C(N)=O)C(=O)[C@@]3(O)C(O)=C1C2=O`, the MIC in the experiment with S. aureus RN450 (setting [1]) and in the experiment with E. coli mL308 225 (setting [2]) was less than 4 µg/mL in each case.
As to `CN(C)c1cc(CNC(=O)C(C)(C)C)c(O)c2c1C[C@H]1C[C@H]3[C@H](N(C)C)C(O)=C(C(N)=O)C(=O)[C@@]3(O)C(O)=C1C2=O`, the figures for the MIC in the experiment with S. aureus RN450 (setting [1]) and with E. coli mL308 225 (setting [2]) were less than 4 µg/mL and more than 4 µg/mL, respectively.
On to `CNC(=O)Oc1ccc(-c2ccc(O)c3c2C[C@H]2C[C@H]4[C@H](N(C)C)C(O)=C(C(N)=O)C(=O)[C@@]4(O)C(O)=C2C3=O)cc1`, for which the MIC in the experiment on S. aureus RN450 (read-out: Antibiotic Activity Gram + (MIC)) and in the experiment on E. coli mL308 225 (setting [7]) was less than 4 µg/mL in each case.
On to `CN(C)CCC(=O)c1ccc(O)c2c1C[C@H]1C[C@H]3[C@H](N(C)C)C(O)=C(C(N)=O)C(=O)[C@@]3(O)C(O)=C1C2=O` [drawing 3401], for which the MIC is less than 4 µg/mL in the experiment with S. aureus RN450 (setting [1]) and more than 4 µg/mL in the experiment with E. coli mL308 225 (setting [2]).
For `CC(=O)NCc1ccc(O)c2c1C[C@H]1C[C@H]3[C@H](N(C)C)C(O)=C(C(N)=O)C(=O)[C@@]3(O)C(O)=C1C2=O`, the MIC is less than 4 µg/mL in the experiment on S. aureus RN450 (setting [1]) and more than 4 µg/mL with E. coli mL308 225 (setting [2]).
The like results for `CC(C)OC(=O)c1cccc(-c2ccc(O)c3c2C[C@H]2C[C@H]4[C@H](N(C)C)C(O)=C(C(N)=O)C(=O)[C@@]4(O)C(O)=C2C3=O)c1` were, in that order, less than 4 µg/mL and less than 4 µg/mL.
Turning to `CN(C)c1cc(NC(=O)CNC(C)(C)C)c(O)c2c1C[C@H]1C[C@H]3[C@H](N(C)C)C(O)=C(C(N)=O)C(=O)[C@@]3(O)C(O)=C1C2=O` [DZ], the MIC in the experiment on S. aureus RN450 (setting [3]) and in the experiment with E. coli mL308 225 (setting [4]) was less than 4 µg/mL throughout.
